According to PubChem BioAssay AID2060902 (Molecular Pharmacology Branch, DTP, NCI, 2025):

Tested on: 485368-065-R3-J5-PDC spheroids with HUVEC/MSC, viability
Experiment: Anticancer human tumor 485368-065-R3-J5-PDC patient-derived pancreatic carcinoma cell line growth inhibition [RAS]
Settings: for IC50: curve of first compound; for viability, T/C: stronger effect = lower value
Method in brief: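 Tumour cells grown as complex spheroids with HUVEC endothelial cells and mesenchymal stem cells, treated with RAS pathway inhibitor combinations. Each agent spans half-log steps from near clinical Cmax, or 10 microM where Cmax is unknown.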
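Note: spheroids exposed to agents for seven days before readout.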

With `C=CC(=O)N1CCN(c2nc(OCC3CCCN3C)nc3c(F)c(-c4nc(N)cc(C)c4C(F)(F)F)c(Cl)cc23)C(C)C1` (configuration not stated) + CCn1c(-c2cccnc2C(C)OC)c2c3cc(ccc31)N1CCOC(CC(NC(=O)C(C(C)C)N(C)C(=O)C3(F)CCN(C(=O)C#CC(C)(C)N(C)C)CC3)C(=O)N3CCCC(N3)C(=O)OCC(C)(C)C2)C1 the IC50 (second compound 0.000949 µM) was > 1000 nM, the IC50 (second compound 0.003 µM) was > 1000 nM and the IC50 (second compound 0.00949 µM) was > 1000 nM. The IC50 (second compound 0.03 µM) was > 1000 nM, the IC50 (second compound 0.0949 µM) was > 1000 nM and the IC50 (second compound 0.3 µM) was > 1000 nM. It also gave a viability, T/C (second compound 0.000949 µM, first compound 0.00316 µM) of 113%, a viability, T/C (second compound 0.000949 µM, first compound 0.01 µM) of 96% and a viability, T/C (second compound 0.000949 µM, first compound 0.0316 µM) of 102%. The viability, T/C (second compound 0.000949 µM, first compound 0.1 µM) was 99.8%, the viability, T/C (second compound 0.000949 µM, first compound 0.316 µM) was 105% and the viability, T/C (second compound 0.000949 µM, first compound 1 µM) was 97.5%. For the same compound, the viability, T/C (second compound 0.003 µM, first compound 0.00316 µM) was 110%, the viability, T/C (second compound 0.003 µM, first compound 0.01 µM) was 99.5% and the viability, T/C (second compound 0.003 µM, first compound 0.0316 µM) was 107%. It also gave a viability, T/C (second compound 0.003 µM, first compound 0.1 µM) of 101%, a viability, T/C (second compound 0.003 µM, first compound 0.316 µM) of 119% and a viability, T/C (second compound 0.003 µM, first compound 1 µM) of 107%. It also gave a viability, T/C (second compound 0.00949 µM, first compound 0.00316 µM) of 95.9%, a viability, T/C (second compound 0.00949 µM, first compound 0.01 µM) of 104% and a viability, T/C (second compound 0.00949 µM, first compound 0.0316 µM) of 97.1%. It also gave a viability, T/C (second compound 0.00949 µM, first compound 0.1 µM) of 103%, a viability, T/C (second compound 0.00949 µM, first compound 0.316 µM) of 110% and a viability, T/C (second compound 0.00949 µM, first compound 1 µM) of 104%. It also gave a viability, T/C (second compound 0.03 µM, first compound 0.00316 µM) of 87.6%, a viability, T/C (second compound 0.03 µM, first compound 0.01 µM) of 99.6% and a viability, T/C (second compound 0.03 µM, first compound 0.0316 µM) of 97.3%. It also gave a viability, T/C (second compound 0.03 µM, first compound 0.1 µM) of 106%, a viability, T/C (second compound 0.03 µM, first compound 0.316 µM) of 107% and a viability, T/C (second compound 0.03 µM, first compound 1 µM) of 108%. The viability, T/C (second compound 0.0949 µM, first compound 0.00316 µM) was 99.4%, the viability, T/C (second compound 0.0949 µM, first compound 0.01 µM) was 99.8% and the viability, T/C (second compound 0.0949 µM, first compound 0.0316 µM) was 108%. The viability, T/C (second compound 0.0949 µM, first compound 0.1 µM) was 93.9%, the viability, T/C (second compound 0.0949 µM, first compound 0.316 µM) was 115% and the viability, T/C (second compound 0.0949 µM, first compound 1 µM) was 93.1%. The viability, T/C (second compound 0.3 µM, first compound 0.00316 µM) was 96.2%, the viability, T/C (second compound 0.3 µM, first compound 0.01 µM) was 104% and the viability, T/C (second compound 0.3 µM, first compound 0.0316 µM) was 95.6%. The viability, T/C (second compound 0.3 µM, first compound 0.1 µM) was 106%, the viability, T/C (second compound 0.3 µM, first compound 0.316 µM) was 105% and the viability, T/C (second compound 0.3 µM, first compound 1 µM) was 94.8%.
